Assay [1] has as its target T1, TTD-PHD RR295/296AA mutant vs. H3K9me3 peptide (Homo sapiens, UniProt Q96T88, R295A/R296A).
T1 construct: made in house; host or cells: E. coli (host printed for TTD-PHD in general: Rosetta (DE3))
T1 sequence (Q96T88 123-366 R295A/R296A): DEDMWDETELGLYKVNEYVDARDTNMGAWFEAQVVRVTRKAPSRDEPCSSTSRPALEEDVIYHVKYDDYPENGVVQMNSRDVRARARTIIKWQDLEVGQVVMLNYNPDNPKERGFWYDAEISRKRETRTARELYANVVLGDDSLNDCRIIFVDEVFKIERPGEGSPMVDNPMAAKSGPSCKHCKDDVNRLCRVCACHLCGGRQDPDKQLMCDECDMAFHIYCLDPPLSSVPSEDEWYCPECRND
Description: TR-FRET assay: TTD-PHD RR295/296AA mutant binding to H3K9me3 peptide. In kind it is biochemical. Conditions: 2.5 mM 2,4-lutidine. The protocol: The fragment screen was carried out on low volume 384-well white plates (Corning 4512) and the assay was performed at room temperature. […] After 1 h of incubation, the fluorescent signals at 665 nm and 620 nm of each plate were measured by the Tecan Infinite M1000 plate reader (excitation 340 nm, 60 μs lag time, and 500 μs integration time) and the TR-FRET signal was calculated by the ratio of 665 nm/620 nm fluorescent signal. For the fragment screen, on seven of the library plates there were 32-wells of DMSO control, while there were 8-wells of DMSO control in the last plate. […] The only difference was that the final concentration of […] assay, while the final concentration of His6-UHRF1-FL was 200 nM and biotin-H3K9me3 peptide was 100 nM for the His6-UHRF1-FL TR-FRET assay. The buffer pH was 7.5 for the His6-TTD-PHD and His6-UHRF1-FL assays.
On the technique in general: Time-resolved FRET reads energy transfer from a long-lived donor to a nearby acceptor.

Assay [2] concerns the target T2, His6-UHRF1-full length vs. H3K9me3 peptide (Homo sapiens, UniProt Q96T88).
T2 construct: made in house; host or cells: Rosetta (DE3) E. coli, pMCSG7
T2 sequence (Q96T88 1-793): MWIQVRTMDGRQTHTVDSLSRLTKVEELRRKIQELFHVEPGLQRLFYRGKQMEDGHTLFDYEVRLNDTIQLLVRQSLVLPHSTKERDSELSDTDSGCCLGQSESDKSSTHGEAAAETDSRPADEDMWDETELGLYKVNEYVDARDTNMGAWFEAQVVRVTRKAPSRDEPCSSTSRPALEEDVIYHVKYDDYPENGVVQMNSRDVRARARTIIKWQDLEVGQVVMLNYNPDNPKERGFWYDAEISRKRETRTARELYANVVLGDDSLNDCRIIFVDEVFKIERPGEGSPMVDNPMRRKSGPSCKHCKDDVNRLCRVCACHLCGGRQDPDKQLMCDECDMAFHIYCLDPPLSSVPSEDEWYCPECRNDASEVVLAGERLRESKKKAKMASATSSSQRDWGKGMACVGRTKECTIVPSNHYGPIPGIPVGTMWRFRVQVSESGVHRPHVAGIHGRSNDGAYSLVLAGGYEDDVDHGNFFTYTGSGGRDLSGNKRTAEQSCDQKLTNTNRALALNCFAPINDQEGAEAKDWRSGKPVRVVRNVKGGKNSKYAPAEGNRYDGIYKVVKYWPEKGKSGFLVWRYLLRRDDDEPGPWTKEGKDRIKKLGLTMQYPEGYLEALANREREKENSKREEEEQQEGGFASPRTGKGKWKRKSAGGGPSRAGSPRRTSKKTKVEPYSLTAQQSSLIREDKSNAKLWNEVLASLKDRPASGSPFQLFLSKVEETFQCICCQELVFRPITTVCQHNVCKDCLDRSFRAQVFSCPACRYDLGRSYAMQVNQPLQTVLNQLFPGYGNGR
Description: TR-FRET assay: His6-UHRF1-FL binding to H3K9me3 peptide. In kind it is biochemical. The note with it: dose-response, side by side with His6-TTD. The method, then:
The fragment screen was carried out on low volume 384-well white plates (Corning 4512) and the assay was performed at room temperature. The TR-FRET reagent mix contained 200 nM of biotinylated-H3K9me3 peptide (Anaspec), 250 nM of His6-TTD, 25 nM of streptavidin-d2 (CisBio), and 1 × anti-6His-Tb cryptate Gold (Cisbio) in TR-FRET buffer (50 mM sodium phosphate, pH 7, 150 mM NaCl, 1 mM DTT, and 0.1% Triton-X-100). During the screen, 5 μl of TR-FRET reagent mix was dispensed into each well, and 100 nl of chemical fragments stock (10 mM in DMSO) was added to each well by pintool using Tecan Freedom Evo liquid handler to make the final compound concentration 196 μM. After 1 h of incubation, the fluorescent signals at 665 nm and 620 nm of each plate were measured by the Tecan Infinite M1000 plate reader (excitation 340 nm, 60 μs lag time, and 500 μs integration time) and the TR-FRET signal was calculated by the ratio of 665 nm/620 nm fluorescent signal. For the fragment screen, on seven of the library plates there were 32-wells of DMSO control, while there were 8-wells of DMSO control in the last plate. The TR-FRET assays for the interactions between His6-TTD-PHD and His6-UHRF1-FL binding to biotinylated-H3K9me3 (1-20) peptide were similar to the assay for His6-TTD. […]

In assay [3] the target is T3, C-FLAG-UHRF1-FL (Homo sapiens, UniProt Q96T88).
T3 construct: His6-UHRF1-full length (His6-UHRF1-FL); His (N); made in house; host or cells: Rosetta (DE3) E. coli, pMCSG7
T3 sequence (Q96T88 1-793): T2 sequence (Q96T88 1-793)
Description: Intrinsic tryptophan fluorescence of C-FLAG-UHRF1-FL. The class given is binding. The note with it: 5 µM protein. The method, then:
The untagged TTD was diluted to 30 µM by buffer (50 mM sodium phosphate, pH 7.5, 150 mM NaCl) with or without 60 µM of H3K9me3 peptide (1–20) (Anaspec). 10 µL of diluted TTD was added into 384-well flat bottom black plate (Greiner, Cat# 781086). […] The final concentration of TTD was 15 µM and the H3K9me3 peptide (if included) was 30 µM. The experiment was performed at room temperature. […] After compound addition, the intrinsic tryptophan fluorescence was analyzed by the Tecan Infinite M1000 plate reader (excitation 280 nm, emission 334 nm). […] Tryptophan fluorescence monitors 2 , 4 - lutidine binding to His 6 - TTD, His 6 - TTD - PHD, and C - FLAG - UHRF 1 - FL . 2 , 4 - Lutidine dose - dependently quenched the tryptophan fluorescence of TTD (purple circle), while only started to show quenching effect against His 6 - TTD - PHD at mM concentration (blue diamond) . 2 , 4 - Lutidine had no effect on the fluorescence of C - FLAG - UHRF 1 - FL and the control USP 7 - UBL 1 / 2 protein . n= 3 for each data point . (Note : the standard deviation error bars are included, but the error values are often extremely small in this assay) . […]

Consider 1 compound from paper PMC7806715, “Discovery of small molecules targeting the tandem tudor domain of the epigenetic factor UHRF1 using fragment-based ligand discovery” (Scientific Reports, 2021).

Consider `Cc1ccnc(C)c1` [2,4-lutidine], for which the “inhibition of binding to H3K9me3 peptide” value in assay [1] was 57.6%. Besides, the “inhibition of His6-UHRF1-FL interaction with H3K9me3 peptide (in words)” value in assay [2] is on record as “only weakly inhibits”. In addition, the “quenching of C-FLAG-UHRF1 tryptophan fluorescence (in words)” value in assay [3] was “did not quench”.
